Measurements reported in patent publication US11458138B2 (Novartis AG, priority 2017, dated 2022).
Entries after “also recorded” stand apart in the source; their conditions may differ.

What was measured:
[1] = test system: human corneal endothelial cells (CECs); assay: CEC population expansion, markers Collagen 8a2, AQP1, SLC4A11, RPE65, CD31 and Na/K ATPase (RT-PCR, immunohistochemistry); type: cell-based; conditions: 10 micromolar, 10 days
Experimental: In order to verify that the expanded cell population expresses genes normally expressed by corneal endothelial cells in vivo, cells were cultured and RT-PCR analysis was then performed to measure the expression levels of Collagen 8a2, AQP1, SLC4A11, RPE65 and CD31. Immunohistochemical analysis was also performed to analyse the levels of Na/K ATPase and Collagen 8a2 as follows.
Cells were cultured at 37° C. in 5% CO2 for 10 days.
To perform the RT-PCR analysis, total RNA was extracted using Trizol (Invitrogen), RNeasy Mini and QIA Shredder (Qiagen) according to manufacturer's protocol. RNA quality and quantity were measured using Nanodrop 100 (Thermo-Fisher Scientific) and Bioanalyzer 2100 (Agilent Technologies). cDNA was prepared by reverse transcription and relative mRNA expression was assessed by quantitative RT-PCR using an 7900HT system (Applied Biosystems). The following cycling parameters were used:
1) 50° C. for 2 minutes; 2) 95° C. for 10 minutes; 3) 95° C. for 15 seconds 4) 60° C. for 1 minute. Steps 3-4 were repeated 40 times.
Actin mRNA levels were measured and used as a endogenous controls to normalize gene expression levels and calculate delta Ct values according to the formula dCt=Ct for gene of interest−Ct for endogenous control. Primers were obtained from Applied Biosystems. […]

[2] = test system: corneal endothelial cell population; assay: Immunohistochemical analysis of expanded corneal endothelial cell population; type: cell-based, human
From the text: (1) The cells express Na/K ATPase. The expression of Na/K ATPase may be estimated by standard techniques known in the art, such as for example immunohistochemistry, quantitative RT-PCR or by FACS analysis.

[3] = test system: human keratinocytes (HaCaT); assay: In vitro YAP pathway activation and cell proliferation in human keratinocytes (HaCaT); type: cell-based
From the text: Accordingly, Example 133 is useful in promoting skin regeneration.

Row | Compound | Expression of corneal endothelial cell genes by the expanded CEC population [1] | expression of Na/K ATPase and Collagen 8a2 by immunohistochemistry [2] | YAP pathway activation in vitro [3] | cell proliferation in human keratinocytes (HaCaT) [3]
1 | CC(C)(O)CC(C)(C)Nc1nc(-c2ccncc2)nc2cnccc12 [Example 49, 2,4-dimethyl-4-{[2-(pyridin-4-yl)pyrido[3,4-d]pyrimidin-4-yl]amino}pentan-2-ol] | express genes normally expressed by corneal endothelial cells in vivo, including Collagen 8a2, AQP1, SLC4A11; also recorded: express genes normally expressed by corneal endothelial cells in vivo, including Na/K ATPase | express genes normally expressed by corneal endothelial cells in vivo | – | –
2 | Cc1n[nH]cc1-c1nc(NC2(C)CC2)c2ccncc2n1 [Example 133, 2-(3-methyl-1H-pyrazol-4-yl)-N-(1-methylcyclopropyl)pyrido[3,4-d]pyrimidin-4-amine] | – | – | activated the YAP pathway | promoted cell proliferation
